Laboratory results taken from US20230183193A1, “4-DIFLUOROMETHYL BENZOYL AMIDES WITH HERBICIDAL ACTION” (BAYER CROPSCIENCE AKTIENGESELLSCHAFT, priority 2017, published 2023).

Legend:
Type in all cases: in vivo
Abutilon theophrasti [1] = assay: Post-emergence herbicidal action, ABUTH; settings: 80 g/ha, Table D
Summary of the method: (§1)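 Greenhouse-grown weeds in sandy loam, treated at the one-leaf stage 2 to 3 weeks after sowing with WP or EC formulations sprayed as aqueous suspension/emulsion at 600 to […] water plus 0.2% wetting agent. Visual scoring after about 3 weeks versus untreated controls, 0% (like control) to 100% (plants dead).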

Matricaria inodora = assay: Pre-emergence herbicidal action, MATIN; settings: dosage 320 g/ha, scored visually after 3 weeks vs untreated controls
Summary of the method: (§2)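 Weed seeds were laid out in sandy loam and covered with soil, then the soil surface was treated with an aqueous suspension or emulsion of the formulated compound containing 0.2% wetting agent. Pots stayed in the greenhouse for 3 weeks before damage was rated visually against untreated plants.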

ECHCG = assay: Post-emergence herbicidal action, ECHCG; settings: 80 g/ha, Table C
Summary of the method: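 Weed and crop plants grown in sandy loam in the greenhouse, treated at the one-leaf stage 2–3 weeks after sowing. Damage scored visually after about 3 weeks vs untreated controls (0% = control, 100% = dead).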

Amaranthus retroflexus [2] = assay: Post-emergence herbicidal action, AMARE; settings: 80 g/ha, Table D
Summary of the method: as §1

Setaria viridis [3] = assay: Post-emergence herbicidal action, SETVI; settings: 80 g/ha, Table C
Summary of the method: as §1

Cyperus serotinus = assay: Pre-emergence herbicidal action, CYPES; settings: dosage 320 g/ha, scored visually after 3 weeks vs untreated controls
Summary of the method: as §2

Setaria viridis [4] = assay: Pre-emergence herbicidal action, SETVI; settings: dosage 320 g/ha, scored visually after 3 weeks vs untreated controls
Summary of the method: as §2

Stellaria media [5] = assay: Pre-emergence herbicidal action, STEME; settings: dosage 320 g/ha, scored visually after 3 weeks vs untreated controls
Summary of the method: as §2

Alopecurus myosuroides [6] = assay: Post-emergence herbicidal action, ALOMY; settings: 80 g/ha, Table C
Summary of the method: as §1

Avena fatua [7] = assay: Pre-emergence herbicidal action, AVEFA; settings: dosage 320 g/ha, scored visually after 3 weeks vs untreated controls
Summary of the method: as §2

Amaranthus retroflexus [8] = assay: Pre-emergence herbicidal action, AMARE; settings: dosage 320 g/ha, scored visually after 3 weeks vs untreated controls
Summary of the method: as §2

Avena fatua [9] = assay: Post-emergence herbicidal action, AVEFA; settings: 80 g/ha, Table C
Summary of the method: as §1

Stellaria media [10] = assay: Post-emergence herbicidal action, STEME; settings: 80 g/ha, Table D
Summary of the method: as §1

Abutilon theophrasti [11] = assay: Pre-emergence herbicidal action, ABUTH; settings: dosage 320 g/ha, scored visually after 3 weeks vs untreated controls
Summary of the method: as §2

Viola tricolor [12] = assay: Post-emergence herbicidal action, VIOTR; settings: 80 g/ha, Table D
Summary of the method: as §1

Alopecurus myosuroides [13] = assay: Pre-emergence herbicidal action, ALOMY; settings: dosage 320 g/ha, scored visually after 3 weeks vs untreated controls
Summary of the method: as §2

Pharbitis purpureum = assay: Post-emergence herbicidal action, PHBPU; settings: 80 g/ha, Table D
Summary of the method: as §1

Viola tricolor [14] = assay: Pre-emergence herbicidal action, VIOTR; settings: dosage 320 g/ha, scored visually after 3 weeks vs untreated controls
Summary of the method: as §2

Row | Compound | herbicidal activity ABUTH (Abutilon theophrasti [1]) | herbicidal activity MATIN (Matricaria inodora) | Herbicidal activity ECHCG (ECHCG) | herbicidal activity AMARE (Amaranthus retroflexus [2]) | herbicidal activity SETVI (Setaria viridis [3]) | herbicidal activity CYPES (Cyperus serotinus) | herbicidal activity SETVI (Setaria viridis [4]) | Herbicidal activity STEME (Stellaria media [5]) | herbicidal activity ALOMY (Alopecurus myosuroides [6]) | herbicidal activity AVEFA (Avena fatua [7]) | herbicidal activity AMARE (Amaranthus retroflexus [8]) | herbicidal activity AVEFA (Avena fatua [9]) | Herbicidal activity STEME (Stellaria media [10]) | herbicidal activity ABUTH (Abutilon theophrasti [11]) | herbicidal activity VIOTR (Viola tricolor [12]) | herbicidal activity ALOMY (Alopecurus myosuroides [13]) | Herbicidal activity PHBPU (Pharbitis purpureum) | herbicidal activity VIOTR (Viola tricolor [14])
1 | CCS(=O)(=O)c1c(C(F)F)ccc(C(=O)Nc2nnnn2C)c1C [Example 1-6] | 90% | 100% | 100% | 100% | 100% | 100% | 100% | 100% | 100% | 100% | 100% | 100% | 100% | 100% | 100% | 100% | 100% | 100%
2 | CCSc1c(C(F)F)ccc(C(=O)Nc2ncnn2C)c1Cl [Example 4-52] | 90% | 100% | 100% | 100% | 100% | 80% | 100% | 100% | 90% | 100% | 100% | 100% | 90% | 100% | 90% | 100% | 100% | 100%
3 | CCn1nnnc1NC(=O)c1ccc(C(F)F)c(S(=O)(=O)CC)c1I [Example 2-78] | 80% | 100% | 90% | 100% | 90% | 100% | 100% | 100% | 80% | 100% | 100% | 90% | 100% | 100% | 90% | 100% | 90% | 100%
4 | CCc1c(C(=O)Nc2nnnn2CC)ccc(C(F)F)c1S(C)(=O)=O [Example 2-15] | 100% | 100% | 90% | 100% | 100% | 100% | 100% | 100% | 80% | 100% | 100% | 100% | 100% | 100% | 100% | 100% | 80% | 100%
5 | CC[S+]([O-])c1c(C(F)F)ccc(C(=O)Nc2nnnn2C)c1Cl (stereo not drawn) [Example 1-53] | 100% | 100% | 90% | 100% | 100% | 100% | 100% | 100% | 100% | 100% | 100% | 100% | 100% | 100% | 100% | 100% | 100% | 100%
6 | Cn1nnnc1NC(=O)c1ccc(C(F)F)c([S+](C)[O-])c1F (stereo not drawn) [Example 1-38] | 100% | 100% | 100% | 90% | 100% | 90% | 100% | 100% | 90% | 100% | 100% | 90% | 100% | 100% | 100% | 100% | 90% | 100%
7 | CCn1nnnc1NC(=O)c1ccc(C(F)F)c(SC)c1F [Example 2-37] | 100% | 100% | 100% | 100% | 100% | 80% | 100% | 100% | 80% | 100% | 100% | 90% | 100% | 100% | 90% | 90% | 100% | 100%
8 | CC[S+]([O-])c1c(C(F)F)ccc(C(=O)Nc2ncnn2C)c1Cl (stereo not drawn) [Example 4-53] | 100% | 100% | 90% | 100% | 100% | 100% | 100% | 100% | 90% | 100% | 100% | 100% | 90% | 100% | 100% | 100% | 90% | 100%
9 | CCSc1c(C(F)F)ccc(C(=O)Nc2nnnn2CC)c1C1CC1 [Example 2-28] | 100% | 100% | 100% | 100% | 100% | 100% | 100% | 100% | 90% | 100% | 100% | 100% | 100% | 100% | 100% | 100% | 100% | 100%
10 | CCc1c(C(=O)Nc2nnnn2C)ccc(C(F)F)c1S(C)(=O)=O [Example 1-15] | 90% | 100% | 90% | 100% | 80% | 100% | 100% | 100% | 90% | 100% | 100% | 100% | 100% | 100% | 100% | 100% | 90% | 100%
11 | CCc1c(C(=O)Nc2nnc(C)o2)ccc(C(F)F)c1S(C)(=O)=O [Example 7-13] | 100% | 100% | 100% | 100% | 100% | 100% | 100% | 100% | 90% | 100% | 100% | 100% | 100% | 100% | 100% | 100% | 100% | 100%
